This is an account of results in PubChem BioAssay (NCI).

Common to all, as to experiment: growth of human tumour cells (NCI), 48 h
Test [1] has as its system K-562 leukemia.
Test [2] deals with KM12 colon.
Test [3] concerns SN12C renal.
The test system of test [4] is SK-OV-3 ovarian.
For test [5], the system named is LOX IMVI melanoma.
Test [6] concerns CAKI-1 renal.
For test [7], the system named is HOP-92 NSCLC.
Test [8] has as its system IGROV1 ovarian.
In test [9] the test system is HT29 colon.
For test [10], the system named is RXF 393 renal.

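Five concentrations, 48 hours, 96-well plates. Here, GI50 denotes the concentration required for 50% inhibition of growth. At the TGI there is no net growth.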 Bounds are passed on as bounds.

As for `COc1ccc(-n2cc(-c3ccc(OC)c(OC)c3)[nH]c2=O)cc1`, the GI50 in test [1], in [2], in test [3], in test [4], in test [5] and in [6] was above 100 µM in each case. The GI50 in [7], in [8] and in [9] was above 100 µM throughout. In addition, the TGI in test [1], in [2], in [3], in test [4], in test [5] and in test [6] was above 100 µM in each case. Moreover, the TGI in test [7], in [8] and in test [9] was above 100 µM each time.
As for `O=C(c1ccccc1)C1N=NN(Cc2ccccc2[N+](=O)[O-])C1C(=O)c1ccccc1` (centres undefined), the TGI in test [1], in test [2], in test [4], in test [5], in test [6] and in [7] was above 100 µM each time. Also, the TGI in test [8], in test [10] and in test [9] was above 100 µM throughout.
Consider `COc1c2ccoc2nc2c(OC)c(OCC(O)C(C)(C)O)ccc12` (centres undefined), for which the TGI in [1], in test [2], in test [3], in test [4], in [5] and in test [6] was above 100 µM throughout. Also, the TGI in test [7], in test [8] and in test [9] was above 100 µM in each case.
As for `COC1=CC(=O)O/C1=C(\OC)C1OC1c1ccccc1` (centres undefined), the TGI in [2], in test [3], in test [4], in test [5], in [6] and in [7] was above 100 µM in each case. Moreover, the TGI in test [8], in test [10] and in test [9] was above 100 µM in each case.
As to `O=S(=O)(NC1=NCCN1C(=S)SN1CCn2c1nsc2=S)c1ccc(Cl)cc1`, the GI50 in test [1] is 5.21 µM; in [2] it was 15.9 µM; in test [3], 8.56 µM; in test [5], 3.84 µM; in test [6], 6.49 µM; in test [7], 11.4 µM. For the same compound, the GI50 in [8] was 10.2 µM; in test [10], 3.09 µM; in [9], 7.34 µM. In addition, the TGI in [1] is above 100 µM; in test [2], 33.6 µM; in test [3] it was 22.5 µM; in [5], 15.7 µM; in [6], 27.7 µM; in test [7], 25.2 µM. The TGI in test [8] is 23.4 µM; in [10], 34.4 µM; in [9], above 100 µM.
For `O=C(Nc1ccc(Cl)cc1C(F)(F)F)C(=O)Nn1c(=S)[nH]c2ccccc2c1=O`, the TGI in test [1], in test [2], in test [3], in [4], in test [5] and in test [6] was above 100 µM each time. The TGI in test [7], in [10] and in test [9] was above 100 µM throughout.
Take `CC(C)C[C@@H](N)[C@@H](O)C(=O)N[C@H](C(=O)N[C@H](C(=O)N[C@@H](CC(=O)O)C(=O)O)C(C)C)C(C)C`: the GI50 in [1], in test [2], in test [3], in test [4], in test [5] and in test [6] was above 20 µM each time. The GI50 is 10.3 µM in test [7], above 20 µM in test [8] and above 20 µM in test [9]. Further, the TGI in [1], in test [2], in test [3], in test [4], in [5] and in [6] was above 20 µM each time. The TGI in [7], in test [8] and in test [9] was above 20 µM in each case.
Take `O=c1c(Cc2ccc3c(c2)OCO3)nnc2sc(-c3cc(F)c(Cl)cc3Cl)nn12`: the GI50 in [1] was 42.8 µM; in test [2], 35.6 µM; in test [3], 62.6 µM; in test [5] it was 44.4 µM; in test [7] it was 23 µM; in test [8], 32.3 µM. The GI50 is 42.7 µM in [10] and 35.2 µM in [9]. In addition, the TGI in test [1] is above 100 µM; in [2], above 100 µM; in test [3], above 100 µM; in test [5], above 100 µM; in test [7], 88.4 µM; in test [8] it was above 100 µM. For the same compound, the TGI in test [10] and in [9] was above 100 µM throughout.
On to `CC(=O)[CH-]C(C)=O.CC(=O)[CH-]C(C)=O.[O-]c1ccccc1.[O-]c1ccccc1.[Ti+4]`, for which the GI50 in test [1], in [2], in test [4], in [5], in test [6] and in test [7] was above 100 µM throughout. Moreover, the GI50 in test [8] and in test [9] was above 100 µM each time. Also, the TGI in test [1], in test [2], in test [4], in test [5], in test [6] and in test [7] was above 100 µM throughout. The TGI in test [8] and in test [9] was above 100 µM in each case.
In the case of `COc1cc2c(/C=C3\C(=O)Nc4ccccc43)c[nH]c2cc1C`, the GI50 is 0.225 µM in test [1]; 0.239 µM in test [2]; 0.275 µM in [3]; 0.0856 µM in [4]; 0.652 µM in test [5]; 0.409 µM in [6]. For the same compound, the GI50 in test [7] was 1.54 µM; in [10], below 0.0231 µM; in test [9] it was 0.152 µM. Besides, the TGI in test [1] worked out at 61.4 µM; in [2], 0.824 µM; in test [3], 1.39 µM; in test [4], 3.21 µM; in test [5] it was 4.19 µM; in [6] it was 13.3 µM. The results for the TGI in test [7], in test [10] and in [9] were 22.3 µM, 0.71 µM and above 100 µM, respectively.
Turning to `Cc1cccc(C2NC(=O)c3ccccc3N2)c1` (centres undefined), the TGI in test [2] is above 100 µM; in test [3], above 100 µM; in [4] it was above 44.6 µM; in test [5], above 100 µM; in test [6], above 100 µM; in test [7], above 100 µM. The TGI in [8] was above 100 µM; in test [10], above 23.7 µM; in test [9], above 26.3 µM.
As to `CCN(CC)C(=S)SSC(C)C`, the GI50 in test [3] was 14.3 µM; in test [4] it was 30.3 µM; in test [5], 4.67 µM; in test [6], 5.99 µM; in test [7], 15.2 µM; in [10], 16.5 µM. Further, the GI50 in test [9] is 14.8 µM. Further, the TGI was 30.5 µM in test [3]; 95.7 µM in [4]; 24.1 µM in test [5]; 19.2 µM in test [6]; 36.1 µM in [7]; 31.5 µM in test [10]. In test [9], the TGI was 29.8 µM.
For the compound `COc1cc(C)c2c(c1)CN1CN2Cc2cc(OC)cc(C)c21`, the TGI in test [1], in [2], in test [3], in test [4], in [5] and in test [6] was above 100 µM in each case. Also, the TGI in test [7], in [8] and in test [9] was above 100 µM throughout.
For `COC(=O)C1C=CCC2CCCCC21N1CCCC1` (centres undefined), the TGI in test [2], in test [3], in test [4], in test [5], in test [6] and in test [7] was above 100 µM each time. The TGI in test [8], in test [10] and in test [9] was above 100 µM in each case.
Take `CN(C)CCC(=O)Nc1ccc(-n2cc(-c3cccc(NC(=S)Nc4cccc(-c5cn(-c6ccc(NC(=O)CCN(C)C)cc6)nn5)c4)c3)nn2)cc1`: the GI50 in [1] is 4.49 µM; in [2], 10.7 µM; in test [3], 61.5 µM; in [4], above 100 µM; in test [5], 7.7 µM; in test [6] it was above 100 µM. Also, the GI50 in test [7] was 19.5 µM; in test [10] it was above 100 µM; in [9] it was 6.03 µM. The TGI in test [1] was above 100 µM; in test [2], 34 µM; in test [3], above 100 µM; in [4], above 100 µM; in [5] it was above 100 µM; in [6] it was above 100 µM. Moreover, the results for the TGI in [7], in [10] and in test [9] were 53.9 µM, above 100 µM and above 100 µM, respectively.
Turning to `O=C1c2cccc3cccc(c23)C(=O)N1CCCCCN1CCN(CCN=c2cc3n(-c4ccc(Cl)cc4)c4ccccc4nc-3cc2Nc2ccc(Cl)cc2)CC1`, the GI50 in [1] is 6.92 µM; in [2], 11.9 µM; in [3] it was 10.4 µM; in test [4], above 50 µM; in [5], 9.83 µM; in test [6], 6.33 µM. Moreover, the GI50 is 7.32 µM in test [7], 11.2 µM in [10] and 9.13 µM in test [9]. The TGI is 33.3 µM in test [1]; 46.3 µM in test [2]; 26.4 µM in test [3]; above 50 µM in test [4]; 29.8 µM in [5]; 20.5 µM in test [6]. Further, the TGI is 19.7 µM in [7], above 50 µM in test [10] and above 50 µM in [9].
On to `N/N=C(/Cc1ccccc1)NNO`, for which the TGI in [1] is above 100 µM; in test [2] it was 34.9 µM; in test [5], above 100 µM; in [6], above 100 µM; in test [7] it was above 100 µM; in [8], above 100 µM. Also, the TGI in test [10] and in test [9] was above 100 µM in each case.
On to `O=C(Nc1sc2c(c1C(=O)O)CCCC2)c1ccco1`, for which the GI50 is 23.9 µM in [1]; 29.5 µM in test [2]; 8.63 µM in test [3]; above 50 µM in test [4]; 22.8 µM in [5]; 44.1 µM in [6]. Besides, the GI50 in test [7], in test [8] and in [10] was above 50 µM throughout. Moreover, the TGI in test [1] is above 50 µM; in test [2] it was above 50 µM; in test [3] it was 42 µM; in test [4], above 50 µM; in [5], above 50 µM; in [6], above 50 µM. In addition, the TGI in test [7], in test [8] and in test [10] was above 50 µM in each case.
Take `COc1cc(C2CC(c3ccc(Nc4nc(NCCO)nc(NCCO)n4)cc3)=NN2c2cc(Cl)cc(Cl)c2)cc(OC)c1OC` (centres undefined): the GI50 in test [1] was 1.47 µM; in [2], 1.53 µM; in test [3], 1.75 µM; in test [4] it was 11.1 µM; in test [5], 1.6 µM; in test [7] it was 1.46 µM. Further, the GI50 in test [8] is 2.02 µM; in test [10], 0.568 µM; in [9] it was 1.52 µM. Further, the TGI in test [1] is 3.58 µM; in test [2] it was 3.21 µM; in test [3], 3.82 µM; in test [4], 23.1 µM; in test [5] it was 3.1 µM; in test [7], 6.73 µM. Also, the TGI in test [8] is 4.8 µM; in test [10] it was 2.34 µM; in test [9], 3.25 µM.
As for `CC(=O)N1[C@H](C(=O)O)CS[C@H]1c1ccc(F)cc1`, the TGI in [1], in [3], in test [5], in [6], in test [7] and in test [8] was above 100 µM each time. Besides, the TGI in test [10] and in [9] was above 100 µM each time.
